Experiments:
HuH-7 hepatoma cells = test: In vitro cell proliferation assay (CellTiter-Glo, CTG), HuH-7; type: cell-based; settings: Homo sapiens, Huh-7, 96 h, HuH-7 cells
Protocol: (§1) In Vitro Cell Proliferation Assay of FGFR4 (CellTiter-Glo Luminescent Cell Viability Assay, CTG Assay)
(§2) Hep 3B hepatoma cells were purchased from Cell Resource Center of Peking Union College, and HuH-7 hepatoma cells were purchased from Shanghai Biological Technology Co., Ltd. enzyme research. The cells were prepared at a concentration of 3×10^4/mL, which was then added with 100 μL to each well of a 96-well transparent flat-bottom black-walled plate to make 3000 cells per well. Incubate overnight at 37° C. in 5% CO2 incubator. Dilute a compound and add it to the wells having the cells, then add cell culture medium to 200 μL per well. Put in CO2 incubator for incubation. After 96 hours, 100 μL of culture medium was removed from each well, 100 μL of CTG was added, and the 96-well plate was placed on a shaker for 10 minutes, and placed in the shade at room temperature for 45 minutes. Data was read out by SoftMax Pro i3X Microplate Reader of MD, analyzed by the software GraphPad Prism 5.0, and S-shaped dose-response curve was drawn, then the EC50 values were calculated.

Hep 3B tumor models = test: In vivo efficacy test, Hep3B subcutaneous xenograft in nude mice; set-up: species or system Nu/Nu nude mice; settings: for tumor inhibition rate: gavage, twice a day, Hep3B xenograft, day 16
Protocol: Human hepatoma Hep3B cells and cell culture medium (EMEM) were purchased from ATCC. Antibiotics (penicillin, streptomycin) and Tryspin-EDTA were purchased from Gibco. Phosphate buffered saline (PBS) and fetal bovine serum (FBS) were purchased from Hyclone. Matrigel was purchased from Corning. Nu/Nu nude mice 6-8 weeks, female, purchased from Vitalriver.
Human hepatoma Hep3B cells were cultured in monolayer in vitro, and cultured in EMEM with 10% fetal bovine serum, 100 U/mL penicillin and 100 μg/mL streptomycin, 37° C., 5% CO2. Trypsin-EDTA was used twice a week for routine digestion and passage. When cell saturation reached 80%-90%, cells were harvested, counted, and seeded. 0.2 mL of 10×10^6 Hep3B cells were subcutaneously seeded on the right back of each nude mouse (PBS:Matrigel=1:1). Administration was started when the average tumor volume reached 128 mm^3.
The mice were administered by gavage, twice a day. Control group was given pure water. Three treatment groups were administered Compound 4, at the doses of 10 mg/kg, 30 mg/kg, and 60 mg/kg, respectively. Tumors were measured and weighed twice a week. By day 16, the average tumor volume in the control group had reached the humanitarian endpoint (2000 mm^3), and the experiment was terminated.
The data was processed by software such as Excel. […] The tumor inhibition effect was obvious in Hep 3B tumor models.

Hep 3B hepatoma cells = test: In vitro cell proliferation assay (CellTiter-Glo, CTG), Hep 3B; type: cell-based, human; settings: Homo sapiens, Hep3B, 96 h, Hep 3B cells
Protocol: as §1, §2

FGFR4 = FGFR4 (Homo sapiens, UniProt P22455); test: In vitro biochemical kinase analysis of FGFR4 (HTRF KinEASE-TK); settings: HTRF kinase assay
FGFR4, sequence (P22455 22-802): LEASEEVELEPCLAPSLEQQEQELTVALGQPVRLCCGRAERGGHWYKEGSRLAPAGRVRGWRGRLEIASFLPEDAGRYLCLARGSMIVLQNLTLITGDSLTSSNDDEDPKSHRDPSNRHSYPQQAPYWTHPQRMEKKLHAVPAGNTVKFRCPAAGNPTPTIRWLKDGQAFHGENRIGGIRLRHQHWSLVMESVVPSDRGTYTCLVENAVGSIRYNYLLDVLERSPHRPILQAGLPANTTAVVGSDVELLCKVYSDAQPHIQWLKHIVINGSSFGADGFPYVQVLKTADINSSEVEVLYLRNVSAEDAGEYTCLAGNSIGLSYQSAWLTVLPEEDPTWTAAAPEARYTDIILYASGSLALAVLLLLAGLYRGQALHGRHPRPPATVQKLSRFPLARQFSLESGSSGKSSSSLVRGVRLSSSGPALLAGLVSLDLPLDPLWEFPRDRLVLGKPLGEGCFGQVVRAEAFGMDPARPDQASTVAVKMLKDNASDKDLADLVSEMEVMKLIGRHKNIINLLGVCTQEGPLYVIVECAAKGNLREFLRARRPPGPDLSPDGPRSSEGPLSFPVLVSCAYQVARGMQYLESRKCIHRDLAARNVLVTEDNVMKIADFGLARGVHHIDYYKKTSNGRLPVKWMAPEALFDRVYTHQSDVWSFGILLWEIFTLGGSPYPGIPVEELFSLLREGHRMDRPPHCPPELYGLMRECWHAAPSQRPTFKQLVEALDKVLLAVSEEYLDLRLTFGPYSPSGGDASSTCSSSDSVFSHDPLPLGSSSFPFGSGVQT
Protocol: In Vitro Biochemical Kinase Analysis of FGFR4
FGFR4 protein kinase detection kit was purchased from Cisbio (HTRF KinEASE-TK kit). Prepare 1× kinase reaction buffer. Transfer 10 nL of a diluted compound to each well of a reaction plate (784075, Greiner) with an Echo 550, and seal the plate with sealing film. The reaction plate was centrifuged at 1000 g for 1 minute. Prepare 2×FGFR4 using 1× kinase reaction buffer, add 5 μL of kinase to each well of the reaction plate, seal the plate, centrifuge at 1000 g for 30 seconds, and incubate it at room temperature for 10 minutes. Prepare a mixture of 2×TK-substrate-biotin and ATP using 1× kinase reaction buffer, add 5 μL of TK-substrate-biotin/ATP mixture to the reaction plate, seal the plate with sealing film, centrifuge at 1000 g for 30 seconds, and react at room temperature for 40 minutes. Prepare 2×Sa-XL 665 and TK-antibody-Cryptate mixture using HTRF detection buffer, add 10 μL Sa-XL 665 and TK-antibody-Cryptate mixture to each well, centrifuge at 1000 g for 30 seconds, and react at room temperature for 1 hour. Envision 2104 read fluorescence signals at 615 nm (Cryptate) and at 665 nm (XL665). IC50 of the compound was calculated using the GraphPad nonlinear fitting formula.

Row | EC50 (HuH-7 hepatoma cells) | EC50 (Hep 3B hepatoma cells) | IC50 (FGFR4) | Structure (SMILES) | tumor inhibition rate (Hep 3B tumor models; 30 mg/kg) | tumor inhibition rate (Hep 3B tumor models; 60 mg/kg) | tumor inhibition effect (Hep 3B tumor models; Hep 3B tumor models, in words)
1 | 0.012 µM | 0.0064 µM | 0.0007 µM | COCCNc1cc(NC(=O)N2c3nc(C=O)c(CN4CCN(C)CC4=O)cc3C3(F)CC2C3)ncc1C#N [Compound 4, N-(5-cyano-4-((2-methoxyethyl)amino)pyridin-2-yl)-4-fluoro-7-formyl-6-((4-methyl-2-oxopiperazin-1-yl)methyl)-3,4-dihydro-2,4-methylene-1,8-naphthyridine-1(2H)-carboxamide] | 78% | 97% | obvious
2 | 0.0396 µM | 0.0249 µM | 0.0034 µM | COCCNc1cc(NC(=O)N2c3nc(C=O)ccc3C3(NC(=O)C4CCN(C)C4)CC2C3)ncc1C#N (stereo not drawn) [Compound 40] | – | – | –
3 | 0.0133 µM | 0.0119 µM | 0.0034 µM | COCCNc1cc(NC(=O)N2c3nc(C=O)ccc3C3(NC(=O)CN4CCCC4)CC2C3)ncc1C#N [Compound 41] | – | – | –

Source: patent publication US12344611B2, “Bridged cycloformylpyridine derivatives and uses thereof” (BroadenBio Co., Ltd., priority 2019, dated 2025)
